Legend:
[1] = LogP (1-octanol/water partition coefficient) determined using HPLC; type: physicochemical; settings: HPLC (OECD guideline), C18 column, methanol–water 75% (v/v), 40 °C, mean of triplicate
Experimental: Hydrophobicity is a key determinant of the activity and pharmacokinetics of biologically active compounds, and the octanol–water partition coefficient (P) and logarithm value (LogP) are widely used hydrophobicity parameters. The LogP values of the synthesized compounds were determined using HPLC [45, 46]. Table 1 summarizes the experimentally determined LogP values and calculated values. […] From the viewpoint of the phosphine structure, an increase in the number of carbon atoms increased hydrophobicity in a predictable manner.
The 1-octanol/water partition coefficient P was determined using HPLC based on the OECD Guideline for Testing Chemicals. A COSMOSIL Packed Column 5C18-MS-II (5 μm, 150 mm × 4.6 mm id, Nacalai Tesque, Inc., Kyoto, Japan) was fitted on an HPLC instrument (Multiwavelength Detector, MD-2010 Plus. JASCO, Tokyo, Japan) equipped with a pump (PU-2080, JASCO) and an oven (SSC-2120, Senshu Scientific Co., Ltd., Tokyo, Japan). The injection volume was 20 µL; the mobile phase was methanol–water 75% (v/v); and the flow rate was 1.0 mL/min in all cases. Compounds were detected by measuring the UV absorption at 240 nm. The temperature of the column was kept at 40.0 (± 0.1) °C during the measurement. The measurement was performed in triplicate, and the mean value was calculated. The dead time t0 was measured with thiourea as the unretained compound, and the capacity factor k was calculated using the equation logk = log (tr − t0/t0), where tr represents the retention time of the compound. A calibration graph was determined experimentally using reference compounds (4-methylphenol, 4-chlorophenol, 4-phenylphenol, diphenylether, fluoranthene, and dichlorodiphenyltrichloroethane) with known logP values. The LogP values of phosphine–boranes were calculated based on a calibration graph (LogP = 2.6269 logkw + 3.059, R^2 = 0.9915).

[2] = molecular target: T1, androgen receptor (AR) (Mus musculus, UniProt P19091); test: SC-3 cell proliferation assay, AR antagonistic activity (1 nM DHT-promoted proliferation); type: cell-based, murine; settings: for effect on SC-3 cell growth in the presence of dihydrotestosterone (AR antagonistic activity): androgen-dependent SC-3 cells; for IC50: read-out: IC50 (antagonist)
T1 construct: SC-3 cells were cultured in MEMα (Fujifilm Wako Co.) supplemented with 2 %; endogenous in cells; host or cells: SC-3
T1 sequence (P19091 1-899): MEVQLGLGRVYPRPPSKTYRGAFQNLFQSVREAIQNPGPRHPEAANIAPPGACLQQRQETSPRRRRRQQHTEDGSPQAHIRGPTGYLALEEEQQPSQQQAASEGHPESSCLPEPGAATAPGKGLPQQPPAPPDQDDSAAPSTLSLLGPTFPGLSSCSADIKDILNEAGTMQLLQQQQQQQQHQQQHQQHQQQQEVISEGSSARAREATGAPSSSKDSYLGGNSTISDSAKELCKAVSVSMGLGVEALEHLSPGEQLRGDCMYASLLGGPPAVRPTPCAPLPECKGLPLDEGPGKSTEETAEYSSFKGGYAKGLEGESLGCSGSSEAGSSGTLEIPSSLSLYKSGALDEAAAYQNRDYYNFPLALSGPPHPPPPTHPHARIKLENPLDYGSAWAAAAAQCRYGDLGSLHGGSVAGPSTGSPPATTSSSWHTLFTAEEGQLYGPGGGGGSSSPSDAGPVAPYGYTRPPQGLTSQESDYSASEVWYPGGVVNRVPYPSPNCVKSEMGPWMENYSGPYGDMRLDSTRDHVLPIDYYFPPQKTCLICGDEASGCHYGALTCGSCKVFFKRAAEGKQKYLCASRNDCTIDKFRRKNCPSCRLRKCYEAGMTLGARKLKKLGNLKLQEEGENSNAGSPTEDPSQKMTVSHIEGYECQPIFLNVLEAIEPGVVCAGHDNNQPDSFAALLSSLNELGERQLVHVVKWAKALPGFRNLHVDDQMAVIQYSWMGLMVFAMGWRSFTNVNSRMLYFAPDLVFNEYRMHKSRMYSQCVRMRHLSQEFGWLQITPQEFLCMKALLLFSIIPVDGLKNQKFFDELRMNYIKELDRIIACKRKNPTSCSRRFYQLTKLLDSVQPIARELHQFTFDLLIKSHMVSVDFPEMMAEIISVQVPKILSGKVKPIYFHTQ

SMILES: C[P+](C)(C)[BH2-]c1ccc(C(F)(F)F)cc1 [Compound 28, B-4-(Trifluoromethyl)phenyl Trimethylphosphine–Borane]
- chromatographic logP [1]: 3.65
- effect on SC-3 cell growth in the presence of dihydrotestosterone (AR antagonistic activity) [2]: did not affect cell growth
- IC50 [2]: > 10 µM

SMILES: FC(F)(F)c1ccc([BH2-][P+](C2CC2)(C2CC2)C2CC2)cc1 [Compound 34, B-4-(Trifluoromethyl)phenyl Tricyclopropylphosphine–Borane]
- chromatographic logP [1]: 5.32
- effect on SC-3 cell growth in the presence of dihydrotestosterone (AR antagonistic activity) [2]: did not affect cell growth
- IC50 [2]: > 10 µM

— publication PMC11013038, “Design, Synthesis, and Evaluation of B-(Trifluoromethyl)phenyl Phosphine–Borane Derivatives as Novel Progesterone Receptor Antagonists” (Molecules, 2024)
